From US6770597B2, “Benzohydrazide derivatives as herbicides and desiccant compositions containing them” (Ishihara Sangyo Kaisha, Ltd., priority 2002, dated 2004)

Legend:
Type in all cases: in vivo
[1] = tested on: field corn (Zea mays L., var. Dekalb 535, CORN); experiment: Greenhouse herbicide screen, post-emerge application, crop damage rating; settings: POST emergent, 14 days after application, scale 0-100
Summary of the method: (§1)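 Post-emergence units received spray at the 2–3 leaf stage and were bottom-watered, whereas pre-emergence units were sprayed one day after sowing and top-watered to incorporate. Application rates spanned 15–1000 g ai/ha in acetone at 187 l/ha. Scoring used a 0–100 damage scale at 14 days.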

[2] = tested on: upland rice (Oryza sp., var.Cocodrie, RICE); experiment: as above; settings: POST emergent, 14 days after application, scale 0-100
Summary of the method: as §1

[3] = tested on: field corn (Zea mays L., var. Dekalb 535, CORN); experiment: Greenhouse herbicide screen, pre-emerge application, crop damage rating; settings: PRE emergent, 14 days after application, rating scale 0-100
Summary of the method: as §1

[4] = tested on: upland rice (Oryza sp., var.Cocodrie, RICE); experiment: as above; settings: PRE emergent, 14 days after application, rating scale 0-100
Summary of the method: as §1

[5] = tested on: redroot pigweed (Amaranthus retrofiexus, AMARE); experiment: Greenhouse herbicide screen, pre-emerge application, phytotoxicity rating; settings: PRE emergent, 14 days after application, rating scale 0-100
Summary of the method: as §1

[6] = tested on: sicklepod (Cassia obtusifolia, CASOB); experiment: as above; settings: PRE emergent, 14 days after application, rating scale 0-100
Summary of the method: as §1

[7] = tested on: johnsongrass (Sorghum halepense, SORHA); experiment: as above; settings: PRE emergent, 14 days after application, rating scale 0-100
Summary of the method: as §1

[8] = tested on: velvetleaf (Abutilon theophrasti, ABUTH); experiment: as above; settings: PRE emergent, 14 days after application, rating scale 0-100
Summary of the method: as §1

[9] = tested on: large crabgrass (Digitaria sanguinalis, DIGSA); experiment: as above; settings: PRE emergent, 14 days after application, rating scale 0-100
Summary of the method: as §1

[10] = tested on: cocklebur (Xanthium strumarium, XANST); experiment: as above; settings: PRE emergent, 14 days after application, rating scale 0-100
Summary of the method: as §1

[11] = tested on: ivyleaf morningglory (Ipomoea hederacea, IPOHE); experiment: as above; settings: PRE emergent, 14 days after application, rating scale 0-100
Summary of the method: as §1

[12] = tested on: barnyardgrass (Echinochloa crus-galli, ECHCG); experiment: as above; settings: PRE emergent, 14 days after application, rating scale 0-100
Summary of the method: as §1

[13] = tested on: lambsquarters (Chenopodium album, CHEAL); experiment: as above; settings: PRE emergent, 14 days after application, rating scale 0-100
Summary of the method: as §1

[14] = tested on: common ragweed (Ambrosia artemisiifolia L., AMBEL); experiment: as above; settings: PRE emergent, 14 days after application, rating scale 0-100
Summary of the method: as §1

[15] = tested on: green foxtail (Setaria viridis, SETVI); experiment: as above; settings: PRE emergent, 14 days after application, rating scale 0-100
Summary of the method: as §1

[16] = tested on: redroot pigweed (Amaranthus retrofiexus, AMARE); experiment: Greenhouse herbicide screen, post-emerge application, phytotoxicity rating; settings: POST emergent, 14 days after application
Summary of the method: as §1

[17] = tested on: sicklepod (Cassia obtusifolia, CASOB); experiment: as above; settings: POST emergent, 14 days after application, scale 0-100
Summary of the method: as §1

[18] = tested on: johnsongrass (Sorghum halepense, SORHA); experiment: as above; settings: POST emergent, 14 days after application, scale 0-100
Summary of the method: as §1

[19] = tested on: velvetleaf (Abutilon theophrasti, ABUTH); experiment: as above; settings: POST emergent, 14 days after application, scale 0-100
Summary of the method: as §1

[20] = tested on: large crabgrass (Digitaria sanguinalis, DIGSA); experiment: as above; settings: POST emergent, 14 days after application, scale 0-100
Summary of the method: as §1

[21] = tested on: cocklebur (Xanthium strumarium, XANST); experiment: as above; settings: POST emergent, 14 days after application, scale 0-100
Summary of the method: as §1

[22] = tested on: ivyleaf morningglory (Ipomoea hederacea, IPOHE); experiment: as above; settings: POST emergent, 14 days after application, scale 0-100
Summary of the method: as §1

[23] = tested on: barnyardgrass (Echinochloa crus-galli, ECHCG); experiment: as above; settings: POST emergent, 14 days after application, scale 0-100
Summary of the method: as §1

[24] = tested on: lambsquarters (Chenopodium album, CHEAL); experiment: as above; settings: POST emergent, 14 days after application, scale 0-100
Summary of the method: as §1

[25] = tested on: common ragweed (Ambrosia artemisiifolia L., AMBEL); experiment: as above; settings: POST emergent, 14 days after application, scale 0-100
Summary of the method: as §1

[26] = tested on: green foxtail (Setaria viridis, SETVI); experiment: as above; settings: POST emergent, 14 days after application, scale 0-100
Summary of the method: as §1

Cn1c(C(F)(F)F)cc(=O)n(-c2cc(C(=O)NN(Cc3ccccc3)Cc3ccccc3)c(Cl)cc2F)c1=O [Compound 1-29]
99: phytotoxicity rating SORHA ([7]; 63 g ai/ha) | phytotoxicity rating SETVI ([15]; 63 g ai/ha) | phytotoxicity rating SORHA ([18]; 63 g ai/ha) | phytotoxicity rating SETVI ([26]; 63 g ai/ha)
75: phytotoxicity rating AMBEL ([14]; 63 g ai/ha) | phytotoxicity rating AMBEL ([25]; 63 g ai/ha)
10: crop damage rating CORN ([1]; 63 g ai/ha) | crop damage rating RICE ([2]; 250 g ai/ha) | crop damage rating CORN ([3]; 63 g ai/ha) | crop damage rating RICE ([4]; 250 g ai/ha)
55: phytotoxicity rating ECHCG ([12]; 63 g ai/ha) | phytotoxicity rating ECHCO ([23]; 63 g ai/ha)
50: crop damage rating CORN ([1]; 250 g ai/ha) | crop damage rating CORN ([3]; 250 g ai/ha) | phytotoxicity rating CASOB ([6]; 63 g ai/ha) | phytotoxicity rating CASOB ([17]; 63 g ai/ha)
90: phytotoxicity rating XANST ([10]; 250 g ai/ha) | phytotoxicity rating IPOHE ([11]; 63 g ai/ha) | phytotoxicity rating XANST ([21]; 250 g ai/ha) | phytotoxicity rating IPOHE ([22]; 63 g ai/ha)
100: phytotoxicity rating AMARE ([5]; 63 g ai/ha) | phytotoxicity rating AMARE ([5]; 250 g ai/ha) | phytotoxicity rating CASOB ([6]; 250 g ai/ha) | phytotoxicity rating SORHA ([7]; 250 g ai/ha) | phytotoxicity rating ABUTH ([8]; 63 g ai/ha) | phytotoxicity rating ABUTH ([8]; 250 g ai/ha) | phytotoxicity rating DIGSA ([9]; 250 g ai/ha) | phytotoxicity rating IPOHE ([11]; 250 g ai/ha) | phytotoxicity rating ECHCG ([12]; 250 g ai/ha) | phytotoxicity rating CHEAL ([13]; 63 g ai/ha) | phytotoxicity rating CHEAL ([13]; 250 g ai/ha) | phytotoxicity rating AMBEL ([14]; 250 g ai/ha) | phytotoxicity rating SETVI ([15]; 250 g ai/ha) | phytotoxicity rating AMARE ([16]; 63 g ai/ha, scale 0-100 (0 no damage, 100 complete death)) | phytotoxicity rating AMARE ([16]; 250 g ai/ha, scale 0-100) | phytotoxicity rating CASOB ([17]; 250 g ai/ha) | phytotoxicity rating SORHA ([18]; 250 g ai/ha) | phytotoxicity rating ABUTH ([19]; 63 g ai/ha) | phytotoxicity rating ABUTH ([19]; 250 g ai/ha) | phytotoxicity rating DIGSA ([20]; 250 g ai/ha) | phytotoxicity rating IPOHE ([22]; 250 g ai/ha) | phytotoxicity rating ECHCO ([23]; 250 g ai/ha) | phytotoxicity rating CHEAL ([24]; 63 g ai/ha) | phytotoxicity rating CHEAL ([24]; 250 g ai/ha) | phytotoxicity rating AMBEL ([25]; 250 g ai/ha) | phytotoxicity rating SETVI ([26]; 250 g ai/ha)
0: crop damage rating RICE ([2]; 63 g ai/ha) | crop damage rating RICE ([4]; 63 g ai/ha) | phytotoxicity rating XANST ([10]; 63 g ai/ha) | phytotoxicity rating XANST ([21]; 63 g ai/ha)
85: phytotoxicity rating DIGSA ([9]; 63 g ai/ha) | phytotoxicity rating DIGSA ([20]; 63 g ai/ha)
